Here are results for eight compounds from ChEMBL document CHEMBL2062394, “Azide-alkyne cycloaddition en route to novel 1H-1,2,3-triazole tethered isatin conjugates with in vitro cytotoxic evaluation” (Eur J Med Chem, 2012).

A word on the IC50: it is the concentration that gives 50% inhibition. Low values mean greater potency in that assay, high ones weaker potency in that assay.

The test system of experiment [1] is A549. The experiment can be described thus: Growth inhibition of human A549 cells at 10 uM after 48 hrs by SRB assay. As to conditions: A549, 48 h, read-out: GI. It counts as functional. For orientation: The SRB assay estimates cell density from bound dye.
In experiment [2] the test system is A549. The experiment can be described thus: Growth inhibition of human A549 cells at 50 uM after 48 hrs by SRB assay. As to conditions: A549, 48 h, read-out: GI. The class given is functional.
Experiment [3] concerns A549. The experiment can be described thus: Growth inhibition of human A549 cells at 100 uM after 48 hrs by SRB assay. The class given is functional. To be noted: A549, 48 h, read-out: GI.
Experiment [4] has as its system PC-3. The experiment can be described thus: Growth inhibition of human PC3 cells at 10 uM after 48 hrs by SRB assay. It counts as functional. As to conditions: PC-3, 48 h, read-out: GI.
Experiment [5] relates to PC-3. The experiment can be described thus: Growth inhibition of human PC3 cells at 50 uM after 48 hrs by SRB assay. It counts as functional. As to conditions: PC-3, 48 h, read-out: GI.
Experiment [6] relates to PC-3. The experiment can be described thus: Growth inhibition of human PC3 cells at 100 uM after 48 hrs by SRB assay. To be noted: PC-3, 48 h, read-out: GI. The class given is functional.
The test system of experiment [7] is THP-1. The experiment in a line: Growth inhibition of human THP1 cells at 10 uM after 48 hrs by SRB assay. The class given is functional. As to conditions: THP-1, 48 h, read-out: GI.
The test system of experiment [8] is THP-1. The experiment can be described thus: Growth inhibition of human THP1 cells at 50 uM after 48 hrs by SRB assay. To be noted: THP-1, 48 h, read-out: GI. The class given is functional.
Experiment [9] has as its system THP-1. The experiment in a line: Growth inhibition of human THP1 cells at 100 uM after 48 hrs by SRB assay. The class given is functional. As to conditions: THP-1, 48 h, read-out: GI.
Experiment [10] concerns Caco-2. The experiment in a line: Growth inhibition of human Caco2 cells at 10 uM after 48 hrs by SRB assay. The class given is functional. To be noted: Caco-2, 48 h, read-out: GI.
Experiment [11] concerns Caco-2. The experiment can be described thus: Growth inhibition of human Caco2 cells at 50 uM after 48 hrs by SRB assay. It counts as functional. To be noted: Caco-2, 48 h, read-out: GI.
Experiment [12] has as its system Caco-2. The experiment in a line: Growth inhibition of human Caco2 cells at 100 uM after 48 hrs by SRB assay. The class given is functional. To be noted: Caco-2, 48 h, read-out: GI.
For experiment [13], the system named is A549. The experiment can be described thus: Growth inhibition of human A549 cells after 48 hrs by SRB assay. As to conditions: for IC50: A549, 48 h. The class given is functional, cell-based.
Experiment [14] has as its system PC-3. The experiment in a line: Growth inhibition of human PC3 cells after 48 hrs by SRB assay. It counts as functional, cell-based. As to conditions: for IC50: PC-3, 48 h.
The test system of experiment [15] is THP-1. The experiment in a line: Growth inhibition of human THP1 cells after 48 hrs by SRB assay. It counts as functional, cell-based. To be noted: for IC50: THP-1, 48 h.
The test system of experiment [16] is Caco-2. The experiment in a line: Growth inhibition of human Caco2 cells after 48 hrs by SRB assay. It counts as functional, cell-based. To be noted: for IC50: Caco-2, 48 h.

Take `Cc1ccc2c(c1)C(=O)C(=O)N2Cc1cn(CCN2C(=O)C(=O)c3cc(F)ccc32)nn1`: the inhibition of growth at 10 µM in experiment [1] came out at 8%; in experiment [4], 0%; in [7], 14%; in experiment [10], 0%. In addition, the inhibition of growth at 50 µM in experiment [2] was 57%; in experiment [5] it was 31%; in experiment [8] it was 88%; in experiment [11], 15%. Besides, the inhibition of growth at 100 µM amounted to 99% in experiment [3], 48% in experiment [6], 89% in [9] and 44% in [12]. In addition, the “growth inhibition (GI)” value in experiment [13], in [14], in [15] and in experiment [16] was “Dose-dependent effect” in each case. The IC50 in experiment [13] is 49.9 µM; in [14], 85.2 µM; in [15], 38.8 µM; in experiment [16] it was over 100 µM.

On to `O=C1C(=O)N(CCn2cc(CN3C(=O)C(=O)c4cc(Br)ccc43)nn2)c2ccc(F)cc21`, for which the inhibition of growth at 10 µM is 41% in experiment [1], 0% in experiment [4], 26% in experiment [7] and 0% in [10]. The inhibition of growth at 50 µM in experiment [2] was 79%; in [5], 2%; in experiment [8], 85%; in experiment [11], 7%. The inhibition of growth at 100 µM amounted to 98% in experiment [3], 51% in experiment [6], 94% in experiment [9] and 13% in [12]. Besides, the “growth inhibition (GI)” value in experiment [13], in experiment [14], in experiment [15] and in experiment [16] was “Dose-dependent effect” throughout. Also, the IC50 in experiment [13] is 16.4 µM; in experiment [14], over 100 µM; in experiment [15] it was 27.6 µM; in [16] it was over 100 µM.

Regarding `O=C1C(=O)N(CCn2cc(CN3C(=O)C(=O)c4cc([N+](=O)[O-])ccc43)nn2)c2ccccc21`, the inhibition of growth at 10 µM stood at 13% in experiment [1], 24% in experiment [4], 11% in experiment [7] and 0% in experiment [10]. Further, the inhibition of growth at 50 µM in [2] was found to be 96%; in experiment [5], 97%; in experiment [8] it was 97%; in experiment [11], 4%. In addition, the inhibition of growth at 100 µM in experiment [3] was found to be 98%; in [6], 99%; in experiment [9], 100%; in experiment [12] it was 18%. For the same compound, the “growth inhibition (GI)” value in experiment [13], in [14], in [15] and in experiment [16] was “Dose-dependent effect” in each case. For the same compound, the IC50 is 39.2 µM in [13], 30.7 µM in experiment [14], 42.8 µM in experiment [15] and over 100 µM in experiment [16].

In the case of `O=C1C(=O)N(CCn2cc(CN3C(=O)C(=O)c4cc([N+](=O)[O-])ccc43)nn2)c2ccc(F)cc21`, the inhibition of growth at 10 µM in [1] was determined as 7%; in experiment [4] it was 2%; in experiment [7], 2%; in [10], 0%. Moreover, the inhibition of growth at 50 µM came out at 22% in experiment [2], 11% in experiment [5], 14% in experiment [8] and 0% in experiment [11]. In addition, the inhibition of growth at 100 µM in experiment [3] was 64%; in [6], 33%; in [9], 90%; in experiment [12], 0%. Further, the “growth inhibition (GI)” value in experiment [13], in experiment [14], in experiment [15] and in experiment [16] was “Dose-dependent effect” each time. Further, the IC50 in experiment [13] was 93.2 µM; in [14], 95.2 µM; in [15], 86.2 µM; in experiment [16], over 100 µM.

Regarding `O=C1C(=O)N(CCn2cc(CN3C(=O)C(=O)c4ccccc43)nn2)c2ccc(F)cc21`, the inhibition of growth at 10 µM was determined as 6% in experiment [1], 0% in experiment [4], 8% in experiment [7] and 0% in [10]. The inhibition of growth at 50 µM was determined as 17% in experiment [2], 32% in [5], 15% in experiment [8] and 1% in experiment [11]. Also, the inhibition of growth at 100 µM in experiment [3] was 32%; in experiment [6] it was 82%; in experiment [9] it was 90%; in experiment [12] it was 10%. Besides, the “growth inhibition (GI)” value in experiment [13], in experiment [14], in [15] and in experiment [16] was “Dose-dependent effect” each time. The IC50 in [13] is over 100 µM; in experiment [14], 71.1 µM; in experiment [15] it was 88.1 µM; in [16], over 100 µM.

As for `O=C1C(=O)N(CCn2cc(CN3C(=O)C(=O)c4cc(F)ccc43)nn2)c2ccc(F)cc21`, the inhibition of growth at 10 µM stood at 5% in experiment [1], 0% in experiment [4], 1% in experiment [7] and 0% in experiment [10]. For the same compound, the inhibition of growth at 50 µM in [2] was 23%; in experiment [5], 10%; in [8], 13%; in [11] it was 0%. The inhibition of growth at 100 µM in experiment [3] was found to be 62%; in [6], 30%; in experiment [9], 92%; in experiment [12], 10%. Further, the “growth inhibition (GI)” value in [13], in experiment [14], in experiment [15] and in experiment [16] was “Dose-dependent effect” in each case. In addition, the IC50 is 90.7 µM in experiment [13], over 100 µM in experiment [14], 83.3 µM in experiment [15] and over 100 µM in [16].

Take `O=C1C(=O)N(CCn2cc(CN3C(=O)C(=O)c4cc(Cl)ccc43)nn2)c2ccc(F)cc21`: the inhibition of growth at 10 µM in experiment [1] worked out at 64%; in [4], 0%; in experiment [7] it was 20%; in experiment [10], 2%. Further, the inhibition of growth at 50 µM in [2] is 73%; in [5] it was 4%; in [8], 70%; in [11], 12%. In addition, the inhibition of growth at 100 µM amounted to 97% in experiment [3], 9% in experiment [6], 92% in experiment [9] and 30% in experiment [12]. Besides, the “growth inhibition (GI)” value in experiment [13], in experiment [14], in experiment [15] and in experiment [16] was “Dose-dependent effect” each time. For the same compound, the IC50 in [13] is 2.65 µM; in experiment [14] it was over 100 µM; in [15] it was 36.3 µM; in [16] it was over 100 µM.

`O=C1C(=O)N(CCn2cc(CN3C(=O)C(=O)c4cc([N+](=O)[O-])ccc43)nn2)c2ccc(Cl)cc21`: the inhibition of growth at 10 µM in [1] was 11%; in experiment [4] it was 30%; in experiment [7] it was 29%; in [10], 17%. Besides, the inhibition of growth at 50 µM in experiment [2] was 80%; in experiment [5], 44%; in experiment [8], 82%; in [11], 21%. The inhibition of growth at 100 µM was found to be 99% in experiment [3], 72% in experiment [6], 88% in experiment [9] and 33% in experiment [12]. Also, the “growth inhibition (GI)” value in experiment [13], in [14], in [15] and in experiment [16] was “Dose-dependent effect” throughout. Besides, the IC50 was 39.3 µM in [13], 53.2 µM in experiment [14], 26 µM in experiment [15] and over 100 µM in experiment [16].
